Data: patent publication US7837757B2, “Enhanced abscisic acid and fertilizer performance” (Valent BioSciences Corporation, priority 2007, dated 2010)
Several values for one entry are separate records, joined by “and”; a condition that tells them apart may be missing. Equal values may be shown once. Where a name gives a salt, the structure may show the parent alone.

System: tomato leaf transpiration
Assay: tomato leaf transpiration inhibition (porometer, normalized to water-sprayed plants)
Type: in vivo, Tomato (variety: Rutgers)

How did the “Transpiration rate (% of control)” value (in vivo) turn out when CC1=CC(=O)CC(C)(C)[C@@]1(O)/C=C/C(C)=C\C(=O)O [ABA ammonium salt, Ammonium Salt of (S)-(+)-Abscisic Acid] was run?
The value was 57 % of control and 67 % of control and 78 % of control and 76 % of control and 88 % of control.

And the “Transpiration rate (% of control), Average” value (in vivo)?
Its value is 68 % of control and 81 % of control.

With “(S)-5-(1-hydroxy-2,6,6,-trimethyl-4-oxo-2-cyclohexen-1-yl)-3-methyl-(2Z,4E)-pentadienoic acid [ABA, reference compound]” as the compound, how does the “Transpiration rate (% of control), Average” value (in vivo) read?
The value was 69 % of control and 78 % of control.

Which “Transpiration rate (% of control)” value (1 mM urea alone, foliar, 1 day after treatment) does the source give for NC(N)=O [Urea, urea] here?
Its value is 103 % of control.

What about the “Transpiration rate (% of control)” value (1 mM urea alone, foliar, 2 days after treatment) of the same compound?
Its value is 98 % of control.

And the “Transpiration rate (% of control)” value (1 mM urea alone, foliar, 3 days after treatment)?
The value was 98 % of control.

What about the “Transpiration rate (% of control)” value (1 mM urea alone, foliar, 4 days after treatment) of the same compound?
The value was 100 % of control.

And the “Transpiration rate (% of control)” value (10 mM urea alone, foliar, 1 day after treatment)?
The value was 101 % of control.

And the “Transpiration rate (% of control)” value (10 mM urea alone, foliar, 2 days after treatment)?
Its value is 103 % of control.

And the “Transpiration rate (% of control)” value (10 mM urea alone, foliar, 3 days after treatment)?
Its value is 106 % of control.

What about the “Transpiration rate (% of control)” value (10 mM urea alone, foliar, 4 days after treatment) of the same compound?
The value was 101 % of control.

And the “Transpiration rate (% of control)” value (100 mM urea alone, foliar, 1 day after treatment)?
The value was 102 % of control.

What about the “Transpiration rate (% of control)” value (100 mM urea alone, foliar, 2 days after treatment) of the same compound?
Its value is 102 % of control.

What about the “Transpiration rate (% of control)” value (100 mM urea alone, foliar, 3 days after treatment) of the same compound?
Its value is 107 % of control.

And the “Transpiration rate (% of control)” value (100 mM urea alone, foliar, 4 days after treatment)?
Its value is 102 % of control.

And the “effect on tomato leaf transpiration (in words)” value (fertilizer or salt alone at 1, 10 or 100 mM, foliar)?
Its value is “did not reduce tomato leaf transpiration”.

Which results are given for [Ca+2].[Cl-].[Cl-] [CaCl2, calcium chloride]?
Transpiration rate (% of control) (in vivo): 97 % of control and 101 % of control and 98 % of control; effect on tomato leaf transpiration (in words) (in vivo): did not affect tomato leaf transpiration
